Measurements from patent US20090188497A1, “MEDICAL PRODUCT CONTAINING TIOTROPIUM” (Boehringer Ingelheim International GmbH, priority 2003, published 2009).

Assay: In-use stability test of FPD, capsules in opened blister at 40° C. and 75% Rh (tests S3-S5)
Assay type: physicochemical
Details: conclusion of the tests on SPIRIVA
Source text: SPIRIVA® powder formulation in bulk and SPIRIVA® capsules from our local pharmacy were introduced to the laboratory together with the […]®. The laboratory was set up to perform in-vitro tests according to European Pharmacopoeia (EP) and US Pharmacopoeia (USP) using two Andersen cascade impactors. All analytical work where then performed according to standardized methods for Physical Tests and Determinations for Aerosols, metered-dose inhalers and dry powder inhalers described in pharmacopoeias (e.g. USP 2002<601>) using a state of the art High Performance Liquid Chromatograph (HPLC) system.
(§1) From the blister holding 5 capsules one capsule was withdrawn and the remaining 4 capsules were put 4 days into 40° C. and 75% Rh. The blister containing the 4 capsules was then put in an exicator for 2 h before tests were performed. The test was performed with 4 kPa pressure drop over the […]® at room temperature and laboratory ambient conditions.
as §1, with “put 13” for “put 4”, “conditions. […]” for “conditions.”

## C[N+]1(C)[C@@H]2C[C@@H](OC(=O)C(O)(c3cccs3)c3cccs3)C[C@H]1[C@@H]1O[C@@H]12 [tiotropium]
  sensitivity to moisture: extremely sensitive to moisture
